Assay [1] deals with human acute monocytic leukemia cell line MV-4-11. As to the kind of experiment: Assay 2 (Cell Proliferation Assay), ATP quantitation (CellTiter-Glo). Format: cell-based. Conditions: MV-4-11 cells, read-out: Assay 2 (EC50, inhibition of cell proliferation). Put shortly:
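Cells (1.67×10^4/well, 10% FBS medium) incubated ±compound 72 h at 37 °C, 5% CO2; HL-60 served as toxicity control. ATP read by CellTiter-Glo luminescence; % inhibition scaled between DMSO and a potent menin inhibitor at ≥100×LD50.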
On the technique in general: ATP-based viability assays read luminescence as a measure of living cells.

Assay [2] deals with T1, menin/MLL binding (biotinylated wild-type or mutated menin and MLL-AF9 fusion protein) (Homo sapiens, UniProt O00255).
T1 construct: biotinylated (1) wild-type menin or (2) mutated menin (described in Nature (2012) Vol. 482, pp. 542-548); fused on or other part: Biotin attached chemically (Sulfo-NHS-Biotin); no fused second protein is printed for menin
T1 sequence (O00255 1-459 limits assumed): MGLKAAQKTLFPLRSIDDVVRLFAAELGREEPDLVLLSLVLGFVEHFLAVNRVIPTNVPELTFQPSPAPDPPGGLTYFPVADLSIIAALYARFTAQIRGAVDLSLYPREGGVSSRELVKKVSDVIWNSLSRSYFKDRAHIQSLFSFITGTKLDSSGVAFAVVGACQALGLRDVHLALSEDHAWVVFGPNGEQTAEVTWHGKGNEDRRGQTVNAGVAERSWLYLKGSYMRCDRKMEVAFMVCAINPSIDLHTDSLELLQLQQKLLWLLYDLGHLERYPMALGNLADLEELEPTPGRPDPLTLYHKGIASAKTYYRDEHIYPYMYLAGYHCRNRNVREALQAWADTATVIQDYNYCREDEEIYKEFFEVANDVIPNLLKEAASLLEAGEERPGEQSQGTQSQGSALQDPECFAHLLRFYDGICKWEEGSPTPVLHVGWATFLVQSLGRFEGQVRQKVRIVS
The experiment in a line: Assay 1 (Binding Assay): AlphaLISA menin/MLL binding. The settings on record: 5 nM biotinylated menin, MLL-AF9-FLAG lysate. In a few lines:
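Biotinylated E. coli-expressed menin (wild-type or mutant), 5 nM, incubated 30 min RT with compound and HEK293 lysate of MLL1-1,396–AF9-FLAG in pH 7.4 Tris buffer, 5% DMSO, 1 mM DTT. Anti-FLAG acceptor and streptavidin donor beads added, 60 min RT, AlphaLISA signal read. IC50 from four-parameter fit of % inhibition.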
(In general: Alpha assays give light when donor and acceptor beads are brought close together.)

Where two headings read alike, the source gives them in different places.

Data on eight molecules can be found in US10899758B2, “Inhibitors of the menin-MLL interaction” (Vitae Pharmaceuticals, LLC, priority 2016, dated 2021).

As to `CC(C)N(C(=O)c1cc(F)ccc1-n1cc(C2CCN(Cc3ccc4c(c3)[nH]c(=O)n4CCO)C2)c2ccncc21)C(C)C` (stereo not shown) [Example 126, 5-fluoro-2-(3-(1-((1-(2-hydroxyethyl)-2-oxo-2,3-dihydro-1H-benzo[d]imidazol-5-yl)methyl)pyrrolidin-3-yl)-1H-pyrrolo[2,3-c]pyridin-1-yl)-N,N-diisopropylbenzamide], in assay [1] (Homo sapiens, MV4-11, 72 h), the EC50 was under 0.1 µM. The same molecule returned an IC50 in assay [2] of under 0.1 µM.
For the molecule `CC(C)N(C)C(=O)c1cc(F)ccc1-n1cc(C2CCCN(Cc3ccc4c(c3)[nH]c(=O)n4CCO)C2)c2ccncc21` (stereo not shown) [Example 44, 5-fluoro-2-(3-(1-((1-(2-hydroxyethyl)-2-oxo-2,3-dihydro-1H-benzo[d]imidazol-5-yl)methyl)piperidin-3-yl)-1H-pyrrolo[2,3-c]pyridin-1-yl)-N-isopropyl-N-methylbenzamide], the EC50 in assay [1] (72 h) was under 0.1 µM. In addition, the concentration for half-maximal inhibition (IC50) in assay [2] was under 0.1 µM.
Consider `CCN(C(=O)c1cc(F)ccc1-n1cc([C@@H]2CCCN(Cc3ccc4c(c3)[nH]c(=O)n4CCO)C2)c2ccncc21)C(C)C` [Example 49A, (S)-N-ethyl-5-fluoro-2-(3-(1-((1-(2-hydroxyethyl)-2-oxo-2,3-dihydro-1H-benzo[d]imidazol-5-yl)methyl)piperidin-3-yl)-1H-pyrrolo[2,3-c]pyridin-1-yl)-N-isopropylbenzamide], for which, in assay [1] (Homo sapiens, MV4-11, 72 h), the EC50 was under 0.1 µM. In assay [2], this molecule displayed an IC50 of under 0.1 µM.
As for `CC(C)N(C)C(=O)c1cc(F)ccc1-n1cc([C@H]2CC[C@H](N)CC2)c2ccncc21` [Example 57, 2-(3-(trans-4-aminocyclohexyl)-1H-pyrrolo[2,3-c]pyridin-1-yl)-5-fluoro-N-isopropyl-N-methylbenzamide], in assay [1] (Homo sapiens, MV4-11, 72 h), the EC50 is at least 1 µM. In assay [2], the IC50 is under 0.1 µM.
Take `CC(C)N(C(=O)c1cc(F)ccc1-n1cc(C2CCN(Cc3ccc4oc(=O)[nH]c4c3)C2)c2ccncc21)C(C)C` (stereo not shown) [Example 140, 5-fluoro-N,N-diisopropyl-2-(3-(1-((2-oxo-2,3-dihydrobenzo[d]oxazol-5-yl)methyl)pyrrolidin-3-yl)-1H-pyrrolo[2,3-c]pyridin-1-yl)benzamide]: the EC50 in assay [1] (Homo sapiens, MV4-11, 72 h) is under 0.1 µM. The same molecule came in with an IC50 in assay [2] of under 0.1 µM.
Consider `CC(C)N(CCO)C(=O)c1cc(F)ccc1-n1cc(C2CCN(Cc3ccccc3)CC2)c2ccncc21` [Example 36, 2-(3-(1-benzylpiperidin-4-yl)-1H-pyrrolo[2,3-c]pyridin-1-yl)-5-fluoro-N-(2-hydroxyethyl)-N-isopropylbenzamide], for which the EC50 in assay [1] (Homo sapiens, MV4-11, 72 h) is under 0.1 µM. Besides, the IC50 in assay [2] was under 0.1 µM.
Regarding `CC(C)N(C)C(=O)c1cc(F)ccc1-n1cc(C2CCC(NCc3ccc4[nH]c(=O)[nH]c4c3)CC2)c2ccncc21` (single isomer, unassigned) [Example 60, 5-fluoro-N-isopropyl-N-methyl-2-(3-(4-(((2-oxo-2,3-dihydro-1H-benzo[d]imidazol-5-yl)methyl)amino)cyclohexyl)-1H-pyrrolo[2,3-c]pyridin-1-yl)benzamide], the EC50 in assay [1] (72 h) lay in the range of 0.1 to 1 µM. Further, the IC50 in assay [2] is under 0.1 µM.
`CC(C)N(C)C(=O)c1cc(F)ccc1-n1cc(C2CCN(C[C@H]3CC[C@H](O)CC3)CC2)c2ccncc21` [Example 27, trans-(5-fluoro-2-(3-(1-((4-hydroxycyclohexyl)methyl)piperidin-4-yl)-1H-pyrrolo[2,3-c]pyridin-1-yl)-N-isopropyl-N-methylbenzamide)]: in assay [1] (Homo sapiens, MV4-11, 72 h), the EC50 is at least 1 µM. The IC50 in assay [2] was under 0.1 µM.

The IC50 is the concentration that gives 50% inhibition.
